Results published in the NIST ThermoML archive (doi:10.1021/je050434f).

Columns and labels:
[1] = for speed of sound / mass density / viscosity: 101.33 kPa, Liquid; for speed of sound: Sing-around technique in a fixed-path interferometer; for mass density: Vibrating tube method; for surface tension liquid-gas: Pendant drop shape; for viscosity: Capillary tube (Ostwald / Ubbelohde) method
[2] = refractive index (Na D-line) (dimensionless); settings: 101.33 kPa, Liquid, Abbe refractometer

COS(=O)(=O)[O-].Cn1cc[n+](C)c1 [1,3-dimethylimidazolium methylsulfate]
Settings	mass density, [1] [kg/m3]	refractive index, [2]	speed of sound, [1] [m/s]	surface tension liquid-gas, [1] [mN/m]	viscosity, [1] [mPa·s]
283.15 K	1338.24	1.48659	1851	–	–
288.15 K	1334.54	1.48525	1838	60.9	–
293.15 K	1330.88	1.48392	1826	60.3	92.76
298.15 K	1327.25	1.4827	1813	59.8	72.91
303.15 K	1323.65	1.48129	1801	59.5	58.35
308.15 K	1320.09	1.47999	1789	59.1	–
313.15 K	1316.57	1.47867	1777	58.9	39.21
318.15 K	1313.05	1.47726	1765	–	–
323.15 K	1309.55	1.47593	1753	–	27.78
328.15 K	1306.06	1.47421	1742	–	–
333.15 K	1302.59	1.47294	1730	–	21.01
338.15 K	1299.14	1.47154	1719	–	–
343.15 K	1295.7	1.47027	1708	–	16.01
